# Where two headings read alike, the source gives them in different places.
# Legend:
# [1] = Metabolic stability in liver microsomes, human; assay type: in vitro ADME; settings: 1 μM, 0.5 mg/mL
# Protocol: (§1) Objective: To test the metabolic stability of the test compound in liver microsomes of three species.
# (§2) Procedures: 1 μM test compound and microsomes (0.5 mg/mL) were incubated at 37° C. in the presence of an NADPH regeneration system. Positive controls were testosterone ([…]), propylamine propiophenone (2D6 substrate) and diclofenac (2C9 substrate). At 37° C., positive controls were incubated with microsomes (0.5 mg/mL) in the presence of an NADPH regeneration system. The reaction was stopped by direct mixing of the sample with cold acetonitrile containing an internal standard at various time points (0, 5, 10, 20, 30 and 60 min). The compound and microsomes were incubated for 60 min in the absence of an NADPH regeneration system. One replicate (n=1) was set at each time point. The samples were analyzed by LC/MS/MS; the concentration of the compound was characterized by the ratio of the analyte peak area to the internal standard peak area.
# [2] = Metabolic stability in liver microsomes, rat; assay type: in vitro ADME; settings: 1 μM, 0.5 mg/mL
# Protocol: as §1, §2
# [3] = molecular target: CYP2C19 (Homo sapiens (Human), UniProt P33261); assay: Inhibition against cytochrome P450 isoenzymes, CYP2C19; assay type: in vitro ADME; settings: human liver microsomes
# CYP2C19, sequence (P33261 whole entry): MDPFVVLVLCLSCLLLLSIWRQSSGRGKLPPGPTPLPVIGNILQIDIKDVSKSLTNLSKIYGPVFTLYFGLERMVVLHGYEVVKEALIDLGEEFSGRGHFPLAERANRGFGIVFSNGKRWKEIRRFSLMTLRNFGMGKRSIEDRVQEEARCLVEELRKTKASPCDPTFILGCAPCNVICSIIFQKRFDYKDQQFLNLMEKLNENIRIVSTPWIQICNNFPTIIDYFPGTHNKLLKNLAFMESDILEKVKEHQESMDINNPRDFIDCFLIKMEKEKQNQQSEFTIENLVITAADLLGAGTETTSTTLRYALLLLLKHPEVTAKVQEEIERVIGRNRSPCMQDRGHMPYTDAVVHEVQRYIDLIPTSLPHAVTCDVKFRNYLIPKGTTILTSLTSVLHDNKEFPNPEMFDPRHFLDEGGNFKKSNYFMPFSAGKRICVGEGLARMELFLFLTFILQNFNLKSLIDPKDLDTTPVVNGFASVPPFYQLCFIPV
# Protocol: (§3) The inhibition of the test compound against different subtypes of the human cytochrome P450 isoenzyme was determined. The test compound, a standard inhibitor (100×final concentration) and a mixed substrate working solution were prepared; the microsomes frozen in a refrigerator at −80° C. were taken out and thawed. […]
# [4] = system: MDA-MB-231 cells with wild-type BRCA; assay: Anti-proliferation study on MDA-MB-231 cells (CellTiter-Glo); assay type: cell-based; settings: Homo sapiens, MDA-MB-231, 72 h; 3 days incubation
# Protocol: Materials: test compounds; R DMEM medium; fetal bovine serum; penicillin/streptomycin antibiotic; MDA-MB-231 cells; Envision Multimode Plate Reader.
# MDA-MB-231 cells were seeded in a white 96-well plate by adding 80 μL of cell suspension (containing 5000 MDA-MB-231 cells) to each well. The cell plate was incubated in a CO2 incubator overnight.
# Eight concentrations were set for each compound. The test compounds were serially 3-fold diluted to the 8th concentration with a multichannel pipette, i.e., from 2 mM to 920 nM, in duplicate. 78 μL of medium was added to an intermediate plate, and the serially diluted compound was transferred to the intermediate plate at 2 μL per well. After being mixed well, the mixture was transferred to the cell plate at 20 μL per well. […] Another cell plate was provided for reading signal values on the day of compound addition and these signal values were used as Max values in data analysis. Promega CellTiter-Glo was added to the cell plate at 25 μL per well and the luminescence signals were stabilized by incubation for 10 min at room temperature. Readings were taken using a PerkinElmer Envision Multimode Plate Reader.
# Promega CellTiter-Glo was added to the cell plate at 25 μL per well and the luminescence signals were stabilized by incubation for 10 min at room temperature. Readings were taken using a PerkinElmer Envision Multimode Plate Reader. […]
# [5] = molecular target: CYP2C9 (Homo sapiens (Human), UniProt P11712); assay: Inhibition against cytochrome P450 isoenzymes, CYP2C9; assay type: in vitro ADME; settings: human liver microsomes
# CYP2C9, sequence (P11712 whole entry): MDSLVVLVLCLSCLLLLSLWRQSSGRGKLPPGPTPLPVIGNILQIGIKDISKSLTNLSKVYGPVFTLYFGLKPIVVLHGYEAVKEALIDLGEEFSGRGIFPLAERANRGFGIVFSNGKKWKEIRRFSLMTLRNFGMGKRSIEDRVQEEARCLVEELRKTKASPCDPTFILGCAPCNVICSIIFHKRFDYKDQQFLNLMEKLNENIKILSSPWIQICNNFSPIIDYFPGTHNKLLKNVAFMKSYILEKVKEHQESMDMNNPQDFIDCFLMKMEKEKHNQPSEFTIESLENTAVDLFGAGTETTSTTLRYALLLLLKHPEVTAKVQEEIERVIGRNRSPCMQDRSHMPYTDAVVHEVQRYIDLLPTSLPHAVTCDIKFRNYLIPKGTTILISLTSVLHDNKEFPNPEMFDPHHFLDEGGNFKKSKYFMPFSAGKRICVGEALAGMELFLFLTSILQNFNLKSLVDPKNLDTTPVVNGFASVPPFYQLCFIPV
# Protocol: as §3
# [6] = Single-dose pharmacokinetic study in mice; assay type: in vivo, male C57BL/6 mice
# Protocol: Objectives: To evaluate the pharmacokinetic behavior in male C57BL/6 mice and to determine the drug concentrations of the compound in the plasma, liver and cerebrospinal fluid after a single dose.
# Procedures: Healthy adult male C57BL/6 mice were selected for intragastric administration. The candidate compound was mixed with an appropriate amount of 10% DMSO/90% (20% hydroxypropyl-@-cyclodextrin), vortexed and sonicated to prepare a 0.5 mg/mL clear solution for later use. After the mice were administered intravenously at 1 mg/kg and orally at 5 mg/kg, whole blood was collected at certain time points. Plasma was separated, and liver and cerebrospinal fluid were collected. After pretreatment of the samples, the drug concentration was measured by LC-MS/MS, and pharmacokinetic parameters were calculated using Phoenix WinNonlin software.
# [7] = Body weight change in the MDA-MB-436 xenograft study; assay type: in vivo; settings: three dose groups (12.5, 25, 50 mg/kg PO QD)
# From the text: 3. Daily observation of animals: the animals were monitored daily for health and death, and routine examinations include observation of the effect on tumor growth and the therapy on the daily performance of the animals, such as behavioral activities, food and water intake, change in body weight, appearance, or other abnormal conditions.
# 1. The body weights of the animals were used as a reference index for indirectly measuring the toxicity of the drug. In this model, no other morbidity or mortality occurred during the study.
# [8] = male, C57BL/6, mouse, plasma, IV: 1 mg/kg PO: 5 mg/kg
compound,measurement,setting,value
C[C@]1(c2ccc(-c3[nH]c4cc(F)cc5c4c3CONC5=O)cc2)CCCN1 [Compound 1],Residual content after 60 min of incubation,[1],35.9%
same,Residual content after 60 min of incubation,[2],31.8%
same,IC50,[3],8.33 µM
same,IC50,[4],> 10 µM
same,IC50,[5],> 50 µM
same,Maximum concentration,[6]; IV: 1 mg/kg PO: 5 mg/kg,240 nM
same,AUC(0-t),"[6]; male, C57BL/6, mouse, plasma, IV 1 mg/kg, read-out: AUC0-last (intravenous injection)",0.958 µM·h
same,bioavailability,[6]; [8],24.8%
same,half-life,[6]; [8],181 min
same,Vd,"[6]; male, C57BL/6, mouse, plasma, IV: 1 mg/kg PO: 5 mg/kg, read-out: Apparent volume of distribution",9.44 L/kg
same,clearance,"[6]; male, C57BL/6, mouse, plasma, IV: 1 mg/kg PO: 5 mg/kg, read-out: Clearance rate",41 mL/min/kg
same,AUC(0-t),"[6]; male, C57BL/6, mouse, plasma, PO 5 mg/kg, read-out: AUC0-last (oral)",1.19 µM·h
same,change in body weight,[7],little change in body weight

# From patent US20230331739A1, “INDOLO HEPTAMYL OXIME ANALOG CRYSTAL AS PARP INHIBITOR AND METHOD FOR PREPARING SAME” (CHIA TAI TIANQING PHARMACEUTICAL GROUP CO., LTD., priority 2020, published 2023)
